test system: IL-6; assay: Inhibition of IL-6 in LPS-stimulated human monocyte cells (THP-1), HTRF; type: cell-based; conditions: Homo sapiens; THP-1 cells, LPS 500 ng/mL, IL-6 by HTRF
Method: Human Monocyte Cell Culture: A human monocyte cell line (THP-1 cells; Catalog #TIB-202, ATCC, Manassas, Va.) was cultured in Roswell Park Memorial Institute (RPMI) 1640 Medium (Catalog #21870-100, Buffalo, N.Y.) with 1% L-glutamine, 1% HEPES, 1% sodium pyruvate, 2% sodium bicarbonate supplemented with 100 units/mL penicillin, 50 μg/mL streptomycin, 2-mercaptoethanol (0.05 mM) [basal medium] and 10% fetal bovine serum (Catalog #16140089, Life Technologies, Carlsbad, Calif.) at 37° C. and 5% CO2.
Compound Screening: THP-1 cells were cultured in basal media with 1% FBS for 24 hours before the start of the assay. Each compound of Formula (I) was dissolved in DMSO as a 10 mM stock and used to prepare compound source plates. Serial dilution (1:3, 10-point dose-response curves starting from 10 μM) and compound transfer was performed using the ECHO 550 (Labcyte, Sunnyvale, Calif.) into 384-well white low volume assay plates (Greiner Bio-One) with appropriate DMSO backfill for a final DMSO concentration of 0.1%. THP-1 cells were plated at 5000 cells/well in the 384-well plates and incubated at 37° C. for 2 h. 500 ng/mL of LPS was added after 2 hours and cells were incubated for another 22 hours at 37° C. Plates were spun in a centrifuge for 1 minute at 10,000 rpm and a mixture of anti-IL-6 XL665, and anti-IL-6 Cryptate diluted in reconstitution buffer (Cisbio Inc.) was added to each well. Following incubation for 3 hrs at room temperature, homogeneous time-resolved fluorescence (HTRF) was measured using the Envision (Perkin Elmer) at 665 nm and […]. The ratio of fluorescence at 665 nm to 620 nm was used as a readout for IL-6 quantification. All samples were processed in duplicate. Readings were normalized to DMSO treated cells and normalized activities were utilized for EC50 calculations using the dose-response log (inhibitor) vs. response -variable slope (four parameters) nonlinear regression feature available in GraphPad Prism 5.0 (or Dotmatics). For EC50 of >10 μM, the percent inhibition at 10 μM is provided.

SMILES	EC50
c1cc(-c2cncc3[nH]c(-c4n[nH]c5ccc(-c6cncc(CNCC7CCCC7)c6)cc45)nc23)cs1 [Compound 311]	216 nM
c1cncc(-c2ccc3[nH]nc(-c4nc5c(-c6ccoc6)cncc5[nH]4)c3c2)c1 [Compound 315]	207 nM
O=C(Cc1ccccc1)Nc1cncc(-c2ccc3[nH]nc(-c4nc5c(-c6ccoc6)cncc5[nH]4)c3c2)c1 [Compound 321]	697 nM
O=C(Nc1cncc(-c2ccc3[nH]nc(-c4nc5c(-c6ccoc6)cncc5[nH]4)c3c2)c1)C1CCCCC1 [Compound 333]	103 nM
Fc1cccc(-c2cncc3[nH]c(-c4n[nH]c5ccc(-c6cncc(CN7CCC(F)(F)C7)c6)cc45)nc23)c1 [Compound 336]	71 nM
FC1(F)CCN(Cc2cncc(-c3ccc4[nH]nc(-c5nc6c(-c7cccnc7)cncc6[nH]5)c4c3)c2)C1 [Compound 339]	97 nM
FC1(F)CCN(Cc2cncc(-c3ccc4[nH]nc(-c5nc6c(N7CCCCC7)cncc6[nH]5)c4c3)c2)C1 [Compound 342]	109 nM
FC1(F)CCN(Cc2cncc(-c3ccc4[nH]nc(-c5nc6c(-c7ccsc7)cncc6[nH]5)c4c3)c2)C1 [Compound 346]	37 nM

The remaining lines, values ahead:

EC50	SMILES
40 nM	CC(C)(C)CC(=O)Nc1cncc(-c2ccc3[nH]nc(-c4nc5c(-c6ccsc6)cncc5[nH]4)c3c2)c1 [Compound 304]
78 nM	CC(C)(C)C(=O)Nc1cncc(-c2ccc3[nH]nc(-c4nc5c(-c6ccoc6)cncc5[nH]4)c3c2)c1 [Compound 319]
58 nM	CCCCC(=O)Nc1cncc(-c2ccc3[nH]nc(-c4nc5c(-c6ccoc6)cncc5[nH]4)c3c2)c1 [Compound 329]
5870 nM	O=C(Nc1cncc(-c2ccc3[nH]nc(-c4nc5c(-c6ccoc6)cncc5[nH]4)c3c2)c1)C1CC1 [Compound 330]
34 nM	CC(C)CC(=O)Nc1cncc(-c2ccc3[nH]nc(-c4nc5c(-c6cc(F)cc(NCCN(C)C)c6)cncc5[nH]4)c3c2)c1 [Compound 349]
34 nM	CC(C)CC(=O)Nc1cncc(-c2ccc3[nH]nc(-c4nc5c(-c6cc(F)cc(CNS(C)(=O)=O)c6)cncc5[nH]4)c3c2)c1 [Compound 373]
14 nM	CC(C)CC(=O)Nc1cncc(-c2ccc3[nH]nc(-c4nc5c(-c6cccs6)cncc5[nH]4)c3c2)c1 [Compound 397]
